The source of these data is ChEMBL document CHEMBL4725291, “Design, synthesis and biological evaluation of novel glyoxalase I inhibitors possessing diazenylbenzenesulfonamide moiety as potential anticancer agents” (Bioorg Med Chem, 2020).

The target in test [1] is T1, Lactoylglutathione lyase (Homo sapiens, UniProt Q04760). As to the kind of experiment: Inhibition of recombinant human N-terminal Met and 6-His-tagged Glyoxalase-1 (Ala2 to Met184 residues) at 25 uM using glutathione and methylglyoxal as substrates preincubated for 15 mins followed by enzyme addition by double beam UV-vis spectrophotometric method relative to control.
Target sequence in this assay (Q04760 2-184 limits assumed): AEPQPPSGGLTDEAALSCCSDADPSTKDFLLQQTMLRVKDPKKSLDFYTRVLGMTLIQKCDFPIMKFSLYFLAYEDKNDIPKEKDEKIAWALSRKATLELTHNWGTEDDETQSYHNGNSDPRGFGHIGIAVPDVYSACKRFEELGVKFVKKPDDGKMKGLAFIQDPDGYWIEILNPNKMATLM

Test [2] deals with T1, Lactoylglutathione lyase. As to the kind of experiment: Inhibition of recombinant human N-terminal Met and 6-His-tagged Glyoxalase-1 (Ala2 to Met184 residues) using glutathione and methylglyoxal as substrates preincubated for 15 mins followed by enzyme addition by double beam UV-vis spectrophotometric method.
Target sequence in this assay (Q04760 whole entry): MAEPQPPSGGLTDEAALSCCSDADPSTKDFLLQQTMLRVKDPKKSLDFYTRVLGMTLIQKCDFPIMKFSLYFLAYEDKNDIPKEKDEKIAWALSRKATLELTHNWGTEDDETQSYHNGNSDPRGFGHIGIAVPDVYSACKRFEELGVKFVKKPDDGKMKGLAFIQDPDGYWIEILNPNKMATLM

Structures are written as SMILES.

`Cc1ccc(/N=N/c2ccc(O)c3ncccc23)cc1S(N)(=O)=O`: on Lactoylglutathione lyase [1], the inhibition was 92.1%. In addition, on Lactoylglutathione lyase [2], the IC50 worked out at 1.28 µM.

As for `Cc1ccc(/N=N/c2c(O)ccc3ccccc23)cc1S(N)(=O)=O`, the inhibition at Lactoylglutathione lyase [1] is 34.5%. On Lactoylglutathione lyase [2], the IC50 came out at 45 µM.

`O=C(O)c1cccc(/N=N/c2ccc(O)c3ncccc23)c1`: the inhibition on Lactoylglutathione lyase [1] turned out to be 90.7%. The IC50 on Lactoylglutathione lyase [2] amounted to 4.37 µM.

Regarding `O=C(O)c1ccc(/N=N/c2ccc(O)c3ncccc23)cc1`, at Lactoylglutathione lyase [1], the inhibition stood at 79.9%. On Lactoylglutathione lyase [2], the IC50 was 4.45 µM.

For `Nc1ccc(/N=N/c2cccc(S(N)(=O)=O)c2)c2ccccc12`, the inhibition at Lactoylglutathione lyase [1] amounted to 28.1%. In addition, the IC50 at Lactoylglutathione lyase [2] was found to be 85.8 µM.

`Oc1ccc(/N=N/c2ccccc2)c2cccnc12`: the inhibition at Lactoylglutathione lyase [1] came out at 82.8%. Moreover, the 50% inhibitory concentration (IC50) at Lactoylglutathione lyase [2] came out at 9.13 µM.

Consider `Cc1ccc(/N=N/c2ccc(N)c3ccccc23)cc1S(N)(=O)=O`, for which the inhibition at Lactoylglutathione lyase [1] amounted to 24.7%. Also, the IC50 at Lactoylglutathione lyase [2] came out at 95.7 µM.

Consider `NS(=O)(=O)c1cccc(/N=N/c2cc3ccc(=O)oc3cc2O)c1`, for which the inhibition at Lactoylglutathione lyase [1] amounted to 64.4%. For the same compound, on Lactoylglutathione lyase [2], the IC50 was determined as 18.9 µM.

Take `NS(=O)(=O)c1cccc(/N=N/c2cc(C(=O)O)c(O)c3ccccc23)c1`: on Lactoylglutathione lyase [1], the inhibition was 96.5%. Also, the IC50 on Lactoylglutathione lyase [2] is 1.22 µM.

Take `Cc1ccc(/N=N/c2cc(C(=O)O)c(O)c3ccccc23)cc1S(N)(=O)=O`: on Lactoylglutathione lyase [1], the inhibition was 100%. Further, the IC50 at Lactoylglutathione lyase [2] stood at 1.13 µM.

Turning to `NS(=O)(=O)c1cccc(/N=N/c2c(O)ccc3ccccc23)c1`, the inhibition at Lactoylglutathione lyase [1] worked out at 39%. The IC50 at Lactoylglutathione lyase [2] turned out to be 37.5 µM.

Take `Cc1ccc(/N=N/c2cc3ccc(=O)oc3cc2O)cc1S(N)(=O)=O`: the inhibition at Lactoylglutathione lyase [1] was 59%. Further, the IC50 at Lactoylglutathione lyase [2] amounted to 17.8 µM.

Turning to `O=S(=O)(O)c1ccc(/N=N/c2ccc(O)c3ncccc23)cc1`, the inhibition on Lactoylglutathione lyase [1] worked out at 75%. Also, the IC50 at Lactoylglutathione lyase [2] is 9.7 µM.

Regarding `Cc1ccc(/N=N/c2ccc(N)c3cc(O)ccc23)cc1S(N)(=O)=O`, the inhibition on Lactoylglutathione lyase [1] is 57.2%. The 50% inhibitory concentration (IC50) on Lactoylglutathione lyase [2] came out at 18.9 µM.

As for `NS(=O)(=O)c1cccc(/N=N/c2ccc(O)c3ccccc23)c1`, the inhibition at Lactoylglutathione lyase [1] amounted to 38.3%. Also, the IC50 on Lactoylglutathione lyase [2] came out at 52.2 µM.

For `NS(=O)(=O)c1cccc(/N=N/c2ccc(O)c(C(=O)O)c2)c1`, the inhibition at Lactoylglutathione lyase [1] came to 76.5%. Besides, the IC50 on Lactoylglutathione lyase [2] is 8.66 µM.

Consider `NS(=O)(=O)c1cccc(/N=N/c2ccc(O)cc2)c1`, for which the inhibition on Lactoylglutathione lyase [1] is 59.9%. In addition, at Lactoylglutathione lyase [2], the IC50 amounted to 13.4 µM.

Regarding `Cc1ccc(/N=N/c2ccc(N)c3ccc(O)cc23)cc1S(N)(=O)=O`, the inhibition at Lactoylglutathione lyase [1] was found to be 76.4%.

With `Cc1ccc(/N=N/c2cc3ccccc3c(C=O)c2O)cc1S(N)(=O)=O`, the inhibition on Lactoylglutathione lyase [1] is 57.4%. For the same compound, on Lactoylglutathione lyase [2], the half-inhibitory concentration (IC50) came out at 18.6 µM.

As for `Cc1ccc(/N=N/c2cc3ccccc3c(C(=O)O)c2O)cc1S(N)(=O)=O`, the IC50 on Lactoylglutathione lyase [2] was over 100 µM.

Regarding `Cc1ccc(/N=N/c2ccc(O)c(C(=O)O)c2)cc1S(N)(=O)=O`, the inhibition on Lactoylglutathione lyase [1] amounted to 67.7%. Moreover, the IC50 on Lactoylglutathione lyase [2] is 11.5 µM.

As to `Cc1ccc(/N=N/c2ccc(N)c3cccc(O)c23)cc1S(N)(=O)=O`, the IC50 at Lactoylglutathione lyase [2] is over 100 µM.

Take `NS(=O)(=O)c1cccc(/N=N/c2ccc(O)c3ncccc23)c1`: the inhibition on Lactoylglutathione lyase [1] stood at 98.3%. At Lactoylglutathione lyase [2], the IC50 stood at 1.36 µM.

In the case of `Cc1ccc(/N=N/c2c(O)ccc3cccc(N)c23)cc1S(N)(=O)=O`, the inhibition at Lactoylglutathione lyase [1] was 54%. Further, the IC50 at Lactoylglutathione lyase [2] stood at 24 µM.

In the case of `Nc1ccc(/N=N/c2cccc(S(N)(=O)=O)c2)c2ccc(O)cc12`, the inhibition at Lactoylglutathione lyase [1] was 66%. Besides, at Lactoylglutathione lyase [2], the IC50 is 21.8 µM.

As usually defined, the inhibition is the percentage by which the read-out fell short of the control. For orientation: IC50 means the concentration that gives 50% inhibition.
